Experimental data published in ChEMBL document CHEMBL6083271 (J Med Chem, 2024).
pIC50: −log10 of the molar value. Calls of active or inactive are those of the source. The calls are words filed in the database; no cut-off is given here.

Experiments:
RS4-11 [1] = assay: Antiproliferative activity against human RS4;11 cells assessed as inhibition of cell growth measured after 4 days by WST-8 assay; assay type: functional, cell-based; conditions: RS4-11, 96 h
MV4-11 [2] = assay: Antiproliferative activity against human MV4-11 cells assessed as inhibition of cell growth measured after 4 days by WST-8 assay; assay type: functional, cell-based; conditions: MV4-11, 96 h
RS4-11 [3] = assay: Upregulation of MDM2 mRNA level in human RS4;11 cells at 300 nM measured after 3 hrs by qRT-PCR analysis; assay type: functional, cell-based
RS4-11 [4] = assay: Upregulation of p21 mRNA level in human RS4;11 cells at 300 nM measured after 3 hrs by qRT-PCR analysis; assay type: functional, cell-based
RS4-11 [5] = assay: Upregulation of PUMA mRNA level in human RS4;11 cells at 300 nM measured after 3 hrs by qRT-PCR analysis; assay type: functional, cell-based
RS4-11 [6] = assay: Effect of p53 mRNA level in human RS4;11 cells at 300 nM by qRT-PCR analysis; assay type: functional, cell-based
MV4-11 [7] = assay: Upregulation of MDM2 mRNA level in human MV4-11 cells at 300 nM by qRT-PCR analysis; assay type: functional, cell-based
MV4-11 [8] = assay: Upregulation of p21 mRNA level in human MV4-11 cells at 300 nM by qRT-PCR analysis; assay type: functional, cell-based
MV4-11 [9] = assay: Upregulation of PUMA mRNA level in human MV4-11 cells at 300 nM by qRT-PCR analysis; assay type: functional, cell-based
RS4-11 [10] = assay: Antiproliferative activity against human RS4;11 cells assessed as inhibition of cell growth measured after 4 days in presence of lenalidomide by WST-8 assay; assay type: functional, cell-based; conditions: time 4.0 day
MV4-11 [11] = assay: Antiproliferative activity against human MV4-11 cells assessed as inhibition of cell growth measured after 4 days in presence of lenalidomide by WST-8 assay; assay type: functional, cell-based; conditions: time 4.0 day
RS4-11 [12] = assay: Antiproliferative activity against human RS4;11 cells harbouring p53 wild type assessed as inhibition of cell growth measured after 4 days by WST-8 assay; assay type: functional, cell-based; conditions: RS4-11, 96 h
RS4-11 [13] = assay: Antiproliferative activity against human RS4;11 cells harbouring p53 mutant assessed as inhibition of cell growth measured after 4 days by WST-8 assay; assay type: functional, cell-based; conditions: RS4-11, 96 h
RS4-11 [14] = assay: Antitumor activity against human RS4;11 cells xenografted in SCID mouse model assessed as tumor regression at 50 mg/kg, iv qd administered every other for 2 weeks by caliper method relative to control; assay type: functional
RS4-11 [15] = assay: Antitumor activity against human RS4;11 cells xenografted in female NOD-SCID mouse model assessed as tumor regression at 50 mg/kg, iv administered every other day for 2 weeks by vernier method relative to control; assay type: functional
[16] = Toxicity in female NOD-SCID mouse assessed as effect on body weight at 50 mg/kg, iv qd; assay type: organism-based; conditions: in vivo
RS4-11 [17] = assay: Upregulation of p53 level in human RS4;11 cells harbouring wild type p53 at 1 to 3 nM measured after 2 hrs by Western blot analysis; assay type: functional, cell-based; conditions: dose 1-3 nM
MV4-11 [18] = assay: Upregulation of p53 level in human MV4-11 cells at 1 to 3 nM measured after 2 hrs by Western blot analysis; assay type: functional, cell-based; conditions: dose 1-3 nM
RS4-11 [19] = assay: Downregulation of MDM2 level in human RS4;11 cells at 1 nM measured after 2 hrs by Western blot analysis; assay type: functional, cell-based
MV4-11 [20] = assay: Downregulation of MDM2 level in human MV4-11 cells at 3 to 30 nM measured after 2 hrs by Western blot analysis; assay type: functional, cell-based; conditions: dose 3-30 nM
[21] = Upregulation of MDM2 mRNA level in human RS4;11 cells assessed as fold change at 10 nM measured after 3 hrs by qRT-PCR analysis; assay type: functional
[22] = Upregulation of p21 mRNA level in human RS4;11 cells assessed as fold change at 10 nM measured after 3 hrs by qRT-PCR analysis; assay type: functional
[23] = Upregulation of PUMA mRNA level in human RS4;11 cells assessed as fold change at 10 nM measured after 3 hrs by qRT-PCR analysis; assay type: functional
RS4-11 [24] = assay: Effect of p53 mRNA level in human RS4;11 cells at 10 nM by qRT-PCR analysis; assay type: functional, cell-based
[25] = Upregulation of p21 mRNA level in human MV4-11 cells assessed as fold increase at 30 nM by qRT-PCR analysis; assay type: functional
[26] = Upregulation of PUMA mRNA level in human MV4-11 cells assessed as fold increase at 30 nM by qRT-PCR analysis; assay type: functional
MV4-11 [27] = assay: Effect on p53 mRNA level in human MV4-11 cells at 30 nM by qRT-PCR analysis; assay type: functional, cell-based
OCI-AML2 = assay: Antiproliferative activity against human OCI-AML2 cells assessed as inhibition of cell growth measured after 4 days by WST-8 assay; assay type: functional, cell-based; conditions: OCI-AML2, 96 h
OCI-AML-3 = assay: Antiproliferative activity against human OCI-AML-3 cells assessed as inhibition of cell growth measured after 4 days by WST-8 assay; assay type: functional, cell-based; conditions: OCI-AML-3, 96 h
OCI-AML-5 = assay: Antiproliferative activity against human OCI-AML5 cells assessed as inhibition of cell growth measured after 4 days by WST-8 assay; assay type: functional, cell-based; conditions: OCI-AML-5, 96 h
MOLM-13 = assay: Antiproliferative activity against human MOLM-13 cells assessed as inhibition of cell growth measured after 4 days by WST-8 assay; assay type: functional, cell-based; conditions: MOLM-13, 96 h
MOLM-14 = assay: Antiproliferative activity against human MOLM-14 cells assessed as inhibition of cell growth measured after 4 days by WST-8 assay; assay type: functional, cell-based; conditions: MOLM-14, 96 h
ML-2 = assay: Antiproliferative activity against human ML-2 cells assessed as inhibition of cell growth measured after 4 days by WST-8 assay; assay type: functional, cell-based; conditions: ML-2, 96 h
SIG-M5 = assay: Antiproliferative activity against human SIG-M5 cells assessed as inhibition of cell growth measured after 4 days by WST-8 assay; assay type: functional, cell-based; conditions: SIG-M5, 96 h
[28] = Half life in mouse at 10 mg/kg, iv; assay type: ADME, organism-based; conditions: in vivo
[29] = AUC (0 to t) in mouse at 10 mg/kg, iv; assay type: ADME, organism-based; conditions: in vivo
[30] = Clearance in mouse at 10 mg/kg, iv; assay type: ADME, organism-based; conditions: in vivo
[31] = Volume of distribution at steady state in mouse at 10 mg/kg, iv; assay type: ADME, organism-based; conditions: in vivo, read-out: Vdss
[32] = Half life in rat at 5 mg/kg, iv; assay type: ADME, organism-based; conditions: in vivo
[33] = AUC (0 to t) in rat at 5 mg/kg, iv; assay type: ADME, organism-based; conditions: in vivo
[34] = Clearance in rat at 5 mg/kg, iv; assay type: ADME, organism-based; conditions: in vivo
[35] = Volume of distribution at steady state in rat at 5 mg/kg, iv; assay type: ADME, organism-based; conditions: in vivo, read-out: Vdss
[36] = Half life in dog at 2.5 mg/kg, iv; assay type: ADME, organism-based, Canis lupus familiaris; conditions: in vivo
[37] = AUC (0 to t) in dog at 2.5 mg/kg, iv; assay type: ADME, organism-based, Canis lupus familiaris; conditions: in vivo
[38] = Clearance in dog at 2.5 mg/kg, iv; assay type: ADME, organism-based, Canis lupus familiaris; conditions: in vivo
[39] = Volume of distribution at steady state in dog at 2.5 mg/kg, iv; assay type: ADME, organism-based, Canis lupus familiaris; conditions: in vivo, read-out: Vdss
RS4-11 [40] = assay: Antitumor activity against human RS4;11 cells xenografted in female NOD-SCID mouse model assessed as tumor regression at 25 mg/kg, iv administered every other day for 2 weeks by vernier method relative to control; assay type: functional
RS4-11 [41] = assay: Antitumor activity against human RS4;11 cells xenografted in female NOD-SCID mouse model assessed as reduction in tumor size at 25 mg/kg, iv administered every other day for 2 weeks by vernier method relative to control; assay type: functional; design: scale not given: the % may be the effect or the level left
RS4-11 [42] = assay: Antitumor activity against human RS4;11 cells xenografted in female NOD-SCID mouse model assessed as tumor regression at 25 mg/kg, iv measured upto 34 days by vernier method relative to control; assay type: functional; conditions: time <= 34 day
[43] = Toxicity in female NOD-SCID mouse assessed as effect on body weight at 25 mg/kg, iv qd; assay type: organism-based; conditions: in vivo
RS4-11 [44] = assay: Antitumor activity against human RS4;11 cells xenografted in female NOD-SCID mouse model assessed as median survival time at 25 mg/kg, iv qw (reference value: 47.5 days); assay type: functional
RS4-11 [45] = assay: Antitumor activity against human RS4;11 cells xenografted in female NOD-SCID mouse model assessed as median survival time at 50 mg/kg, iv qw (reference value: 47.5 days); assay type: functional
RS4-11 [46] = assay: Downregulation of MDM2 protein level in human RS4;11 cells at 3 nM measured after 2 hrs in presence of lenalidomide by Western blot analysis; assay type: functional, cell-based
MV4-11 [47] = assay: Downregulation of MDM2 protein level in human MV4-11 cells at 3 nM measured after 2 hrs in presence of lenalidomide by Western blot analysis; assay type: functional, cell-based
RS4-11 [48] = assay: Upregulation of p53 protein level in human RS4;11 cells at 3 nM measured after 2 hrs in presence of lenalidomide by Western blot analysis; assay type: functional, cell-based
MV4-11 [49] = assay: Upregulation of p53 protein level in human MV4-11 cells at 3 nM measured after 2 hrs in presence of lenalidomide by Western blot analysis; assay type: functional, cell-based

O=C(N[C@H]1CC[C@H](C(=O)O)CC1)[C@@H]1NC2(CCCCC2)[C@@]2(C(=O)Nc3cc(Cl)ccc32)[C@H]1c1cccc(Cl)c1F
pIC50 (RS4-11 [1]): 6.75
pIC50 (MV4-11 [2]): 7.03
Activity (RS4-11 [3]): Active; Least Effect
Activity (RS4-11 [4]): Active; Least Effect
Activity (RS4-11 [5]): Active; Least Effect
Activity (RS4-11 [6]): inactive
Activity (MV4-11 [7]): Active; Less Effective Than Md-265
Activity (MV4-11 [8]): Active; Less Effective Than Md-265
Activity (MV4-11 [9]): Active; Less Effective Than Md-265
Activity (RS4-11 [10]): Active; Compound Showed Modest Inhibition Of Cell Growth
Activity (MV4-11 [11]): Active; Compound Showed Minimal Effect

O=C1CCC(N2Cc3c(C#CCCCNC(=O)c4ccc(NC(=O)[C@@H]5NC6(CCCCC6)[C@@]6(C(=O)Nc7cc(Cl)ccc76)[C@H]5c5cccc(Cl)c5F)cc4)cccc3C2=O)C(=O)N1 (some centres not stated)
pIC50 (RS4-11 [12]): 8.40
pIC50 (RS4-11 [13]): < 6.00
Activity (RS4-11 [14]): 100%
pIC50 (RS4-11 [1]): 8.70
pIC50 (MV4-11 [2]): 8.15
Activity (RS4-11 [15]): 100%
Activity [16]: Non-toxic

O=C1CCC(N2Cc3c(C#CC4CCN(C(=O)[C@H]5CC[C@H](NC(=O)[C@@H]6NC7(CCCCC7)[C@@]7(C(=O)Nc8cc(Cl)ccc87)[C@H]6c6cccc(Cl)c6F)CC5)CC4)cccc3C2=O)C(=O)N1 (some centres not stated)
pIC50 (RS4-11 [1]): 9.15
pIC50 (MV4-11 [2]): 8.70
Activity (RS4-11 [17]): Active
Activity (MV4-11 [18]): Active
Activity (RS4-11 [19]): Active
Activity (MV4-11 [20]): Active
fold change (FC) [21]: 8
fold change (FC) [22]: 8
fold change (FC) [23]: 8
Activity (RS4-11 [24]): inactive
fold change (FC) [25]: 10
fold change (FC) [26]: 3
Activity (MV4-11 [27]): inactive
pIC50 (OCI-AML2): 7.62
pIC50 (OCI-AML-3): 6.67
pIC50 (OCI-AML-5): 7.64
pIC50 (MOLM-13): 8.24
pIC50 (MOLM-14): 8.12
pIC50 (ML-2): 8.92
pIC50 (SIG-M5): 7.70
half-life [28]: 6.1 h
AUC(0-t) [29]: 156000 ng·h/mL
clearance [30]: 1.1 mL/min/kg
Vd [31]: 0.54 L/kg
half-life [32]: 5.6 h
AUC(0-t) [33]: 13000 ng·h/mL
clearance [34]: 3.2 mL/min/kg
Vd [35]: 0.15 L/kg
half-life [36]: 6.3 h
AUC(0-t) [37]: 5500 ng·h/mL
clearance [38]: 7.4 mL/min/kg
Vd [39]: 0.93 L/kg
Activity (RS4-11 [40]): 100%
Activity (RS4-11 [41]): >70%
Activity (RS4-11 [42]): 100%
Activity [43]: Non-toxic
MST (RS4-11 [44]): 78.5 days
MST (RS4-11 [45]): 72 days
Activity (RS4-11 [46]): inactive
Activity (MV4-11 [47]): inactive
Activity (RS4-11 [48]): inactive
Activity (MV4-11 [49]): inactive
Activity (RS4-11 [10]): inactive
Activity (MV4-11 [11]): inactive
